Measurements from patent US11034726B2, “Gene expression inhibitors” (PIVARIS BIOSCIENCE GMBH, priority 2017, dated 2021).
Ends that are not written are not given here. Peptide text beside a SMILES is read from it.

Columns and labels:
[1] = tested on: baculovirus encoding luciferase under control of the CMV promoter; experiment: Baculovirus-mediated luciferase gene expression in HEK293 cells; type: cell-based; details: for baculovirus-mediated luciferase expression (in words): HEK293 pretreated for 10 minutes
Method: A baculovirus was generated with the luciferase coding region under control of the CMV promoter integrated in its viral genome. The baculovirus was applied to HEK293 cells pretreated for 10 minutes with DMSO or increasing concentrations of peptide I24, TAT and the fusion peptide TAT-I24. Luciferase expression is reduced in cells treated with cell-permeable fusion peptide TAT-I24 in a dose-dependent manner (FIG. 7a). Baculovirus-infected cells incubated with DMSO, TAT-I24 or TAT were stimulated with TNF-α and total RNA isolated from cells. After treatment of the RNA with DNAse I, reverse transcription was performed. Luciferase and IL-8 mRNA were analysed by real-time PCR.

[2] = tested on: adenovirus encoding luciferase and GFP; experiment: Adenovirus gene expression and replication in HEK293 cells; type: cell-based
Method: HEK293 cells were treated with increasing concentrations of the peptides I24, TAT-I24 or TAT alone and incubated with adenovirus encoding luciferase and green fluorescence protein (GFP) under control of the CMV promoter. […] HEK293 cells were treated with vehicle control, the peptide I24, TAT-I24 or TAT alone (20 μM) and adenovirus particles encoding luciferase and GFP. After 72 hrs, RNA was isolated and luciferase and GFP as well as adenovirus hexon transcript levels analysed by real-time PCR and normalized to GAPDH. […] DNA was isolated from supernatants and adenovirus hexon DNA quantified using real-time PCR (FIG. 8c).

vaccinia virus = type: cell-based; details: for rpo22 mRNA levels (in words): normalized to GAPDH
[3] = tested on: lentivirus containing luciferase under control of the CMV promoter; experiment: Lentivirus luciferase gene expression in HEK293 cells; type: cell-based; details: 20 μM, 48 hrs
Method: HEK293 cells were incubated with peptide I24, TAT-tagged peptide I24 (TAT-I24), or TAT followed by addition of lentivirus containing luciferase under control of the CMV promoter for 48 hrs.

herpes simplex virus = experiment: Herpes simplex virus plaque-formation assay; type: cell-based
Text: Cells were infected with herpes simplex virus and replication of virus determined by a plaque-formation assay (see examples above). Replication of herpes simplex virus was inhibited by TAT-I24 in a dose-dependent manner.

[4] = tested on: plasmid-encoded luciferase in HEK293 cells; experiment: Transient transfection of luciferase expression plasmid (CMV promoter) with peptide, luciferase in cell lysates; details: for luciferase % of DMSO con-: peptide 2 μM, 24 hrs post-transfection, HEK293, relative to DMSO control; for inhibition of luciferase production (in words): peptide transfected with CMV-luciferase plasmid, HEK293, 24 hrs; for IC50: read-out: IC50 inhibition of plasmid-encoded luciferase levels, transfected together with the plasmid-DNA
[5] = tested on: plasmid-encoded green fluorescence protein (GFP) in HEK293 cells; experiment: Transfection of GFP expression plasmid, Western blot and GFP-positive cells; type: cell-based, human; details: 2 μM
[6] = tested on: luciferase under control of the truncated interleukin-8 (IL-8) promoter in HEK293 cells; experiment: Transfection of luciferase under truncated IL-8 promoter, TNF-α stimulation; type: cell-based, human; details: 24 hrs post-transfection, TNF-α 6 hrs after transfection
Text: (§1) HEK293 cells were transiently transfected with a construct containing the luciferase coding region under control of the truncated interleukin-8 (IL-8) promoter and peptide I24 and stimulated with tumor necrosis factor (TNF)-α 6 hrs after transfection and analysed 24 hrs post-transfection for expression of luciferase in cell lysates and released IL-8 in the supernatants by ELISA.

[7] = tested on: endogenous interleukin-8 in HEK293 cells; experiment: Endogenous IL-8 release by ELISA in transfected, TNF-α-stimulated cells; type: cell-based, human; details: 24 hrs post-transfection
Text: as §1

[8] = tested on: plasmid-encoded luciferase in COS-7 cells; experiment: Transfection of CMV-luciferase plasmid in COS-7 cells, luciferase protein and mRNA; type: cell-based, African green monkey
Method: COS-7 African green monkey kidney cells were transfected with an expression plasmid driving luciferase under control of the CMV promoter and luciferase determined in cell lysates. For analysis of expression of luciferase mRNA, total RNA was isolated, treated with DNAse I and subjected to reverse transcription using random hexamers. Real-time PCR was performed with hydrolysis probes detecting luciferase and normalized to 18S rRNA transcript levels.
(§2) The cell lines African Green Monkey kidney cells CV-1 and COS-7, as well as the human breast cancer cell line MCF-7 and the human colon cancer cell lines HT-29 were transiently transfected with a plasmid containing luciferase under control of a CMV promoter and different concentrations of peptide I24.

[9] = tested on: plasmid-encoded luciferase and neomycin resistance gene mRNA in HEK293 cells; experiment: Real-time PCR of luciferase (CMV promoter) and neomycin resistance gene (early SV40 promoter) mRNA from one plasmid; type: cell-based, human; details: increasing concentration, 24 hrs, normalized against GAPDH
Method: HEK293 cells were transiently transfected in the presence of increasing concentrations of peptide I24 with an expression plasmid containing luciferase under control of the CMV promoter and the neomycin resistance gene under control of the early SV40 promoter. After 24 hrs, total RNA was isolated from the cells, digested with DNAse I to remove plasmid-DNA and subjected to reverse transcription. Quantitative real-time PCR analysis of luciferase and neomycin mRNA was performed using hydrolysis probes and normalized against GAPDH transcripts.

[10] = tested on: plasmid-encoded luciferase in CV-1 cells; experiment: Transfection of CMV-luciferase plasmid in CV-1 cells; type: cell-based, African Green Monkey; details: CV-1, different concentrations
Text: as §2, with “[…].” for “I24.”

[11] = tested on: plasmid-encoded luciferase in MCF-7 cells; experiment: Transfection of CMV-luciferase plasmid in MCF-7 cells; type: cell-based, human; details: MCF-7, different concentrations
Text: as §2, with “[…].” for “I24.”

[12] = tested on: plasmid-encoded luciferase in HT-29 cells; experiment: Transfection of CMV-luciferase plasmid in HT-29 cells; type: cell-based, human; details: HT-29, different concentrations
Text: as §2, with “[…].” for “I24.”

Escherichia coli [13] = experiment: Colony formation of E. coli transformed with antibiotic resistance plasmid and peptide; type: cell-based
Text: Competent Escherichia coli cells were transformed with a plasmid containing an ampicillin resistance gene or a kanamycin resistance gene and either DMSO as vehicle control or I24. On the next day, number of colonies was reduced in the presence of peptide I24 compared to the vehicle control (FIG. 11).

Escherichia coli [14] = experiment: Plasmid copy numbers and β-lactamase mRNA in transformed E. coli by real-time PCR; type: cell-based; details: normalized to E. coli single-copy gene
Method: Competent Escherichia coli cells were transformed with a plasmid containing an ampicillin resistance gene and peptide I24. After indicated time-points, total plasmid numbers and β-lactamase mRNA levels were determined by real-time PCR normalized to an E. coli single-copy gene.

[15] = TNF-α stimulated, real-time PCR

Molecule: CC(C)C[C@H](NC(=O)[C@H](CS)NC(=O)[C@H](CCC(N)=O)NC(=O)[C@@H]1CCCN1C(=O)[C@@H]1CCCN1C(=O)[C@H](CCCNC(=N)N)NC(=O)[C@H](CCCNC(=N)N)NC(=O)[C@H](CCCNC(=N)N)NC(=O)[C@H](CCC(N)=O)NC(=O)[C@H](CCCNC(=N)N)NC(=O)[C@H](CCCNC(=N)N)NC(=O)[C@H](CCCCN)NC(=O)[C@H](CCCCN)NC(=O)[C@H](CCCNC(=N)N)NC(=O)CN)C(=O)N[C@@H](C)C(=O)N[C@@H](Cc1ccccc1)C(=O)N[C@@H](Cc1ccc(O)cc1)C(=O)N[C@@H](C)C(=O)N[C@@H](CS)C(=O)N[C@@H](Cc1ccccc1)C(=O)N[C@@H](CS)C(=O)O [TAT-I24] (H-GRKKRRQRRRPPQCLAFYACFC-OH; N-terminus and C-terminus assumed)
- baculovirus-mediated luciferase expression (in words) [1]: reduced
- IL-8 mRNA levels (cellular gene) [1, 15]: remained unaffected
- luciferase mRNA (baculovirus-encoded) [1, 15]: down-regulated
- luciferase, GFP and adenovirus hexon transcript levels ([2]; 20 μM, 72 hrs, normalized to GAPDH): inhibition of all three adenovirus-encoded genes
- cell detachment of virus-infected HEK293 cells ([2]; 96 hrs after infection, crystal violet staining): inhibition of cell detachment
- IC50 ([2]; HEK293, read-out: IC50 luciferase protein levels, adenovirus): 6000 nM
- adenovirus particles released to supernatants (hexon DNA) ([2]; real-time PCR of supernatant DNA): inhibits formation and release of adenovirus particles to supernatants
- inhibition of virus replication, vaccinia virus (vaccinia virus; 20 μM): > 90%
- reduction of amount of viral DNA in the supernatants (vaccinia virus; 20 μM, 24 hrs after infection): > 90%
- reduction of number of plaque forming units (PFU) in the supernatants (vaccinia virus; 20 μM, plaque assay using BSC-40 cells): > 90%
- rpo22 mRNA levels (in words) (vaccinia virus; 24 hrs after infection): dose-dependently inhibited
- reduction in luciferase levels, lentivirus [3]: 75%
- replication of herpes simplex virus (herpes simplex virus): inhibited
- luciferase % of DMSO con- [4]: 1.8%
- inhibition of luciferase production (in words) [4]: more potent inhibition of luciferase expression
- IC50 [4]: 60 nM

Molecule: CAAFYACFC [I24 M11]
- luciferase % of DMSO con- [4]: 32.2%

Molecule: CLAFRACFC [I24 M27]
- luciferase % of DMSO con- [4]: 110.9%

Molecule: CLAFYAC [I24 M2]
- luciferase % of DMSO con- [4]: 110.1%

Molecule: CLAFYACFAC [I24 M5]
- luciferase % of DMSO con- [4]: 10.6%

Molecule: CLAFYACFC (cysteine pairing not given here) [I24]
- GFP production by Western blot [5]: reduced
- number of GFP-positive cells [5]: reduced
- TNF-α-induced luciferase expression (IL-8 promoter) [6]: reduced TNF-α-induced luciferase expression
- release of IL-8 (ELISA) [7]: not affected
- inhibition of the reporter gene luciferase ([8]; COS-7, different concentrations): Inhibition of the reporter gene luciferase was observed
- luciferase protein levels ([8]; COS-7, different incubation times): downregulated
- luciferase mRNA levels ([8]; COS-7, normalized to 18S rRNA, different incubation times): downregulated
- reduction of luciferase transcripts (CMV promoter) [9]: 87%
- reduction of neomycin mRNA levels (early SV40 promoter) [9]: about 50%
- inhibition of the reporter gene luciferase [10]: Inhibition of the reporter gene luciferase was observed
- inhibition of the reporter gene luciferase [11]: Inhibition of the reporter gene luciferase was observed
- inhibition of the reporter gene luciferase [12]: Inhibition of the reporter gene luciferase was observed
- baculovirus-mediated luciferase expression (in words) [1]: only weakly active
- colony formation, peptide applied after transformation (Escherichia coli [13]; applied after transformation is completed): inactive
- number of colonies (Escherichia coli [13]; peptide applied simultaneously with plasmid (ampicillin or kanamycin resistance gene)): reduced
- plasmid copy numbers (Escherichia coli [14]; 4 and 6 hrs after transformation): downregulated
- β-lactamase mRNA levels (Escherichia coli [14]): downregulated
- inhibition of reporter gene expression ([4]; 2 μM): approximately 90%
- inhibition of reporter gene expression ([4]; 20 μM): 90%
- luciferase % of DMSO con- [4]: 12.2%
- inhibition of luciferase production (in words) [4]: dose-dependent inhibition of luciferase production

Molecule: CLAFYACFCGGGCLAFYACFC [I24 dimer]
- luciferase % of DMSO con- [4]: 3.8%
- IC50 [4]: 90 nM

Molecule: CLAFYACFWC [I24 M20]
- luciferase % of DMSO con- [4]: 5.6%

Molecule: CLAFYACLWC [I24 M22]
- luciferase % of DMSO con- [4]: 6.8%

Molecule: CLAFYACRC [I24 M30]
- luciferase % of DMSO con- [4]: 116.5%

Molecule: CLAFYARFC [I24 M29]
- luciferase % of DMSO con- [4]: 56.3%

Molecule: CLAFYCFAC [I24 M14]
- luciferase % of DMSO con- [4]: 63.2%

Molecule: CLAFYCFC [I24 M13]
- luciferase % of DMSO con- [4]: 64.9%

Molecule: CLAFYRCFC [I24 M28]
- luciferase % of DMSO con- [4]: 93.4%

Molecule: CLARYACFC [I24 M26]
- luciferase % of DMSO con- [4]: 128.6%

Molecule: CLAYFCFC [I24 M16]
- luciferase % of DMSO con- [4]: 68.7%

Molecule: CLLYFCFC [I24 M17]
- luciferase % of DMSO con- [4]: 16.7%

Molecule: CLVFYACFC [I24 M12]
- luciferase % of DMSO con- [4]: 11.8%

Molecule: FYACFAC [I24 M10]
- luciferase % of DMSO con- [4]: 104.2%

Molecule: FYACFC [I24 M9]
- luciferase % of DMSO con- [4]: 103.6%

Molecule: FYCFAC [I24_M19]
- luciferase % of DMSO con- [4]: 118.6%

Molecule: FYCFC [I24 M18]
- luciferase % of DMSO con- [4]: 107.8%

Molecule: GRKKRRQRRRPPQ [TAT, reference compound]
- rpo22 mRNA levels (in words) (vaccinia virus; 24 hrs after infection): no inhibition
- inhibition of luciferase production (in words) [4]: inactive

Molecule: SAFYACFAC [I24 M7]
- luciferase % of DMSO con- [4]: 75.9%

Molecule: SLAFYACFAC [I24 M6]
- luciferase % of DMSO con- [4]: 41.9%

Molecule: SLAFYASFS [I24 M4]
- luciferase % of DMSO con- [4]: 100.5%

Molecule: SVFYACFAC [I24_M8]
- activity in the cellular transfection assay (in words) ([4]; 2 μM): no inhibitory effect
- luciferase % of DMSO con- [4]: 103.7%

Molecule: SVFYACFC [I24 M31]
- luciferase % of DMSO con- [4]: 135.5%

Molecule: WSEQCFTCWW [reference compound]
- activity in the cellular transfection assay (in words) ([4]; 2 μM): no inhibitory effect
- luciferase % of DMSO con- [4]: 106.2%
